Assays:
[1] = for surface tension liquid-gas: Drop volume; for mass density: Liquid
[2] = xn = mol fraction of the nth substance listed; conditions: for surface tension liquid-gas: Drop volume; for mass density: 101 kPa, Liquid

CCCCCCO [hexan-1-ol]
[1]
Conditions | mass density [kg/m3] | surface tension liquid-gas [mN/m]
288.15 K | 822.28 | 26.08
298.15 K | 815.23 | 25.19
308.15 K | 808 | 24.19

CCCCCCCCC [nonane]
[1]
Conditions | mass density [kg/m3] | surface tension liquid-gas [mN/m]
288.15 K | 721.78 | 23.38
298.15 K | 714.02 | 22.37
308.15 K | 706.21 | 21.25

CCCCCCCCC [nonane] + CCCCCCO
[2]
Conditions | mass density [kg/m3] | surface tension liquid-gas [mN/m]
288.15 K, x1 = 0.05 | – | 25.77
288.15 K, x1 = 0.0509 | 815.13 | –
288.15 K, x1 = 0.1003 | 808.46 | –
288.15 K, x1 = 0.1082 | – | 25.47
288.15 K, x1 = 0.2028 | 795.35 | –
288.15 K, x1 = 0.2075 | – | 25.06
288.15 K, x1 = 0.307 | 783.01 | –
288.15 K, x1 = 0.3079 | – | 24.62
288.15 K, x1 = 0.4026 | 772.51 | –
288.15 K, x1 = 0.4075 | – | 24.31
288.15 K, x1 = 0.5066 | – | 24.01
288.15 K, x1 = 0.5086 | 761.75 | –
288.15 K, x1 = 0.6016 | 753.02 | –
288.15 K, x1 = 0.6024 | – | 23.81
288.15 K, x1 = 0.7079 | – | 23.68
288.15 K, x1 = 0.708 | 743.74 | –
288.15 K, x1 = 0.808 | 735.7 | –
288.15 K, x1 = 0.8081 | – | 23.57
288.15 K, x1 = 0.9016 | 728.72 | –
288.15 K, x1 = 0.9036 | – | 23.48
288.15 K, x1 = 0.9506 | 725.26 | –
288.15 K, x1 = 0.9554 | – | 23.44
298.15 K, x1 = 0.0504 | – | 24.84
298.15 K, x1 = 0.0509 | 807.93 | –
298.15 K, x1 = 0.1003 | 801.18 | –
298.15 K, x1 = 0.1004 | – | 24.54
298.15 K, x1 = 0.2028 | 787.95 | –
298.15 K, x1 = 0.2042 | – | 24.12
298.15 K, x1 = 0.2998 | – | 23.69
298.15 K, x1 = 0.307 | 775.48 | –
298.15 K, x1 = 0.388 | – | 23.41
298.15 K, x1 = 0.4026 | 764.9 | –
298.15 K, x1 = 0.5011 | – | 23.07
298.15 K, x1 = 0.5086 | 754.06 | –
298.15 K, x1 = 0.6016 | 745.28 | –
298.15 K, x1 = 0.606 | – | 22.84
298.15 K, x1 = 0.708 | 735.96 | –
298.15 K, x1 = 0.7086 | – | 22.66
298.15 K, x1 = 0.808 | 727.88 | –
298.15 K, x1 = 0.8085 | – | 22.56
298.15 K, x1 = 0.9007 | – | 22.48
298.15 K, x1 = 0.9016 | 720.88 | –
298.15 K, x1 = 0.9506 | 717.44 | –
298.15 K, x1 = 0.9508 | – | 22.39
308.15 K, x1 = 0.0509 | 800.64 | –
308.15 K, x1 = 0.0511 | – | 23.81
308.15 K, x1 = 0.1003 | 793.82 | –
308.15 K, x1 = 0.1013 | – | 23.52
308.15 K, x1 = 0.2028 | 780.43 | –
308.15 K, x1 = 0.2059 | – | 23.08
308.15 K, x1 = 0.3066 | – | 22.59
308.15 K, x1 = 0.307 | 767.86 | –
308.15 K, x1 = 0.4026 | 757.19 | –
308.15 K, x1 = 0.404 | – | 22.27
308.15 K, x1 = 0.5065 | – | 21.98
308.15 K, x1 = 0.5086 | 746.28 | –
308.15 K, x1 = 0.6016 | 737.44 | –
308.15 K, x1 = 0.6028 | – | 21.77
308.15 K, x1 = 0.708 | 728.09 | –
308.15 K, x1 = 0.7135 | – | 21.59
308.15 K, x1 = 0.8059 | – | 21.47
308.15 K, x1 = 0.808 | 719.98 | –
308.15 K, x1 = 0.9016 | 712.97 | –
308.15 K, x1 = 0.9043 | – | 21.34
308.15 K, x1 = 0.9506 | 709.52 | –
308.15 K, x1 = 0.9519 | – | 21.27

— the NIST ThermoML archive (doi:10.1016/j.fluid.2006.01.028)
